Results from patent EP0411503B1, “Process for identifying and synthesizing binding sites of interacting proteins” (priority 1989, dated 1999).
Where no end group is shown, it is not given here.

Molecular target: peptide HIV-1 gp120
Experiment: Affinity HPLC of CD4 peptide on immobilized HIV-1 gp120 peptide
Format: binding
Text: The existence of an interaction ability among complementary peptides was verified by affinity HPLC (G. Fassina and I. M. Chaiken, Advances in Chromatogr. 27:250, 1987).
The peptide HIV-1 gp120 was immobilized on a solid support (Eupergit^R C 30n, 800 µmoles/g load capability by controlled density) according to the conditions reported in literature (G. Fassina et al., J. Chromatogr. 376:87, 1986) and an HPLC glass column (80∗ 6.6 mm ID) was loaded with the peptide derivatized support to prepare an affinity column. The total amount of immobilized peptide in the column is 260 µg, as checked from the amino acid analysis of the support. Small amounts (1-10 µg) of CD4 peptide were eluted isochrathically on the column equilibrated by a flow rate of 1.0 ml/min with 0.1 M NH4Ac, pH 5.7.
The eluted solution was analysed by monitoring the optic absorbance.
The extension of the delay on column, which indicates the interaction between the peptides, was correlated to the dissociation constant Km/p of the binding according to the equation: 1/(V-Vo ) = Km/p /MT +[P]T /MT [formula] where V is the elution volume of the eluted peptide, Vo is void volume of the column, MT is the total immobilized peptide, [P]T is the eluted peptide, and Km/p is the dissociation constant of the binding. […]

Row | Substance | Kd (immobilized HIV-1 gp120 peptide, 0.1 M NH4Ac, pH 5.7, extrapolation at concentration zero of peptide, read-out: dissociation constant) [µM] | binding in competitive binding assay (1 mM of HIV-1 gp120 added to the buffer)
1 | GPSKLNDRADS [peptide CD4, NH2-GPSKLNDRADSCOOH] | 80 | –
2 | NH2-APPISGOIRSS-COOH [HIV-1 gp120] | – | completely inhibited
